Source: patent US7973062B2, “Androgen receptor-ablative agents” (The Ohio State University Research Foundation, priority 2008, dated 2011)

Tests used:
Type in all cases: cell-based
AR promoter = assay: AR promoter-luciferase reporter assay in transiently transfected LNCaP cells; details: compounds at 10 μM, 48 h, ciglitazone and Δ2CG at 20 μM
From the text: (§1) Transfection and Luciferase assay. The 3.6-kilobase AR promoter-linked reporter plasmid p-3600ARCAT was kindly provided by Dr. Chawnshang Chang (University of Rochester Medical Center, Rochester, N.Y.). The AR promoter gene (−3600 to +550) encompassing the transcription start site was isolated by using PCR to generate hAR-luc with suitable primers. The fragment was subcloned into the pGL3 luciferase reporter vector (Promega, Madison, Wis.) at KpnI and BglII in the multiple cloning site. The PPRE-x3-TK-Luc reporter vector contains three copies of the PPAR-response element (PPRE) upstream of the thymidine kinase promoter-luciferase fusion gene and was kindly provided by Dr. Bruce Spiegelman (Harvard University, Cambridge, Mass.). The pCMVSp1 plasmid was purchased from Origene Technologies, Inc. (Rockville, Md.). LNCaP or PC3 cells were transfected with 5 μg of individual plasmids in an Amaxa Nucleofector using a cell line-specific nucleofector kit according to the manufacturer's protocol (Amaxa Biosystems, Cologne, Germany), and then seeded in 6-well plates at 5×10^5 cells per well for 48 h. The transfection efficiency was determined to be 70-80% by transfecting cells with 2 μg of pmaxGFP plasmid, followed by fluorescence microscopy to measure GFP expression. For each transfection, herpes simplex virus thymidine kinase promoter-driven Renilla reniformis luciferase was used as an internal control for normalization.
For the reporter gene assay, after transfection, cells were cultured in 24-well plates in 10% FBS-supplemented RPMI 1640 medium for 48 h, subject to different treatments for the indicated times, collected, and lysed with passive lysis buffer (Promega). Fifty-μl aliquots of the lysates were added to 96-well plates, and luciferase activity was monitored after adding 100 μl of luciferase substrate (Promega) each well by using a MicroLumatPlus LB96V luminometer (Berthold Technologies, Oak Ridge, Tenn.) with the WinGlow software package. All transfection experiments were carried out in six replicate.

[1] = tested on: androgen receptor (AR) expression; assay: Western blot analysis of AR protein expression in LNCaP cells; details: for suppression of AR protein expression (in words): 72 h, Western blot
Experimental: RT-PCR and Immunoblotting. LNCaP cells were cultured in T25 flasks at an initial density of 1×10^6 cells/flask. After exposure to various compounds at the indicated conditions, cells were subject to total RNA isolation by using an RNeasy mini-kit (QIAGEN, Valencia, Calif.). RNA concentrations were determined by measuring absorption at 260 nm in a spectrophotometer. Aliquots of 6 μg of total RNA from each sample were reverse-transcribed to cDNA using an Omniscript RT Kit (QIAGEN) according to the manufacturer's instructions, using suitable primers.
For immunoblotting, protein extracts were prepared by M-PER Mammalian Protein Extraction Reagent (Pierce, Rockford, Ill.) with freshly added 1% phosphatase and protease inhibitor cocktails (Calbiochem) followed by centrifugation at 13,000×g for 10 min. Supernatant was collected and protein concentration was determined by protein assay reagent (Bio-Rad, CA). Protein extracts were then suspended in 2×SDS sample buffer, and subject to 10% SDS-polyacrylamide gels. After electrophoresis, proteins were transferred to nitrocellulose membranes using a semidry transfer cell. The transblotted membrane was washed twice with Tris-buffered saline containing 0.1% Tween 20 (TBST). After blocking with TBST containing 5% nonfat milk for 1 h, the membrane was incubated with mouse monoclonal anti-AR (Santa Cruz) or anti-β-actin (MP Biomedicals) antibodies (diluted 1:1000) in 1% TBST nonfat milk at 4° C. overnight. After incubation with the primary antibody, the membrane was washed three times with TBST for a total of 30 min, followed by incubation with horseradish peroxidase conjugated goat anti-mouse IgG (diluted 1:2500) for 1 h at room temperature. After three thorough washes with TBST for a total of 30 min, the immunoblots were visualized by enhanced chemiluminescence.

[2] = tested on: LNCaP androgen-responsive prostate cancer cells; assay: MTT cell viability assay, LNCaP cells; details: 48 h
Experimental: Cell Counting and Cell Viability Assay. LNCaP or PC-3 cells were placed in six-well plates (2.5×10^5 cells/well) in 10% FBS-supplemented RPMI 1640 for 24 h, and treated with various concentrations of compound 12 for additional 24, 48 and 72 h. Cells were then trypsinized and counted by using a Coulter counter (Model Z1 D/T, Beckman Coulter, Fullerton, Calif.). Cell viability was assessed by using the 3-(4,5-dimethylthiazol-2-yl)-2,5-diphenyl-2H-tetrazolium bromide (MTT) assay in six replicates in 96-well plates. LNCaP or PC-3 cells were seeded at 6000 cells per well in 10% FBS-supplemented RPMI 1640 for 24 h, followed by treatments with various compounds in 5% FBS-supplemented RPMI 1640 at the indicated concentrations. Controls received DMSO at a concentration equal to that in drug-treated cells. After the end of incubation, MTT (0.5 mg/ml) in 10% FBS-supplemented RPMI 1640 was added to each well, and cells were incubated at 37° C. for 2 hours. Medium was removed and the reduced MTT dye was solubilized in DMSO (200 μl/well). Absorbance was determined at 570 nm by a 96-well plate reader.

[3] = tested on: PARP cleavage, caspase 3 and caspase 7 activation; assay: Western blot of apoptosis-related biomarkers in LNCaP cells; details: 72 h
PPARγ = target: T1, PPARγ (Homo sapiens, UniProt P37231); assay: PPRE-luciferase reporter assay (PPRE-x3-TK-Luc) in PC-3 cells; details: PC-3 cells transfected with PPRE-x3-TK-Luc
T1 construct: In PC-3 cells transfected with a reporter construct (PPRE-x3-TK-Luc); endogenous in cells; host or cells: PC-3
T1 sequence (P37231 1-505): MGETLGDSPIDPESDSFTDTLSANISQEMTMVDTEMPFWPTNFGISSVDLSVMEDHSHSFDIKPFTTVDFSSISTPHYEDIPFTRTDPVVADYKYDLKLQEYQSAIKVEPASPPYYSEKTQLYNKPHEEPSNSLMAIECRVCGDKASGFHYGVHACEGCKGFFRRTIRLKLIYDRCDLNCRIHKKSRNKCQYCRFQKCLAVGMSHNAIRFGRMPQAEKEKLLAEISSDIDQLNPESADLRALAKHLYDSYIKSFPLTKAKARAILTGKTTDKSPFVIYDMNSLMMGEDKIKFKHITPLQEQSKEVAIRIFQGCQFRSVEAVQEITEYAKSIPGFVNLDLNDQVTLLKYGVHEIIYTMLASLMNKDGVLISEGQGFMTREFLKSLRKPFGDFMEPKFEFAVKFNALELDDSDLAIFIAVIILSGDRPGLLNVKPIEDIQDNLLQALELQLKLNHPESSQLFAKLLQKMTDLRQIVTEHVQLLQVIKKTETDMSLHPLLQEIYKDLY
From the text: as §1, with “The transfection efficiency was determined to be 70-80% by transfecting cells with 2 μg of pmaxGFP plasmid, followed by fluorescence microscopy to measure GFP expression.” left out
Fifty-μl aliquots of the lysates were added to 96-well plates, and luciferase activity was monitored after adding 100 μl of luciferase substrate (Promega) each well by using a MicroLumatPlus LB96V luminometer (Berthold Technologies, Oak Ridge, Tenn.) with the WinGlow software package. All transfection experiments were carried out in six replicate.

| Structure (SMILES) | suppression of AR promoter-luciferase activity / AR transcription (in words) (AR promoter) | suppression of AR protein expression (in words) ([1]; 10% FBS) | inhibition of LNCaP cell viability (in words) [2] | also measured |
| --- | --- | --- | --- | --- |
| CC1(COc2cccc(/C=C3\SC(=O)NC3=O)c2)CCCCC1 [Compound 1, 5-[3-(1-Methyl-cyclohexylmethoxy)-benzylidene]-thiazolidine-2,4-dione] | enhanced AR-ablating activity | dose-dependent effect on suppressing AR protein expression | – | – |
| CCOc1cc(/C=C2\SC(=O)NC2=O)ccc1OCC1(C)CCCCC1 [Compound 6, 5-[3-Ethoxy-4-(1-methyl-cyclohexylmethoxy)-benzylidene]-thiazolidine-2,4-dione] | – | dose-dependent effect on suppressing AR protein expression | – | – |
| CC1(CN2C(=O)S/C(=C\c3ccc(O)cc3)C2=O)CCCCC1 [Compound 9, 5-(4-Hydroxy-benzylidene)-3-(1-methyl-cyclohexylmethyl)-thiazolidine-2,4-dione] | enhanced AR-ablating activity | dose-dependent effect on suppressing AR protein expression | – | – |
| CC1(CN2C(=O)S/C(=C\c3ccccc3O)C2=O)CCCCC1 [Compound 10, 5-(2-Hydroxy-benzylidene)-3-(1-methyl-cyclohexylmethyl)-thiazolidine-2,4-dione] | abolished the ability to suppress | – | abolished the ability to suppress | – |
| CC1(CN2C(=O)S/C(=C\c3cccc(O)c3)C2=O)CCCCC1 [Compound 11, 5-(3-Hydroxy-benzylidene)-3-(1-methyl-cyclohexylmethyl)-thiazolidine-2,4-dione] | abolished the ability to suppress | – | abolished the ability to suppress | – |
| CC1(CN2C(=O)S/C(=C\c3cc(Br)c(O)c(Br)c3)C2=O)CCCCC1 [Compound 16, 5-(3,5-Dibromo-4-hydroxy-benzylidene)-3-(1-methyl-cyclohexylmethyl)-thiazolidine-2,4-dione] | optimal agents | – | optimal agents | IC50 ([1]; 72-h exposure, Western blot (FIG. 4C), read-out: IC50 for suppressing AR expression): ~4 µM; apoptosis-related biomarkers: PARP cleavage, proteolytic activation of caspase 3 and caspase 7 [3]: dose-dependent effects; PPARγ activation (in words) (PPARγ): lacked appreciable activity |
| CC1(CN2C(=O)SC(Cc3ccc(O)c(C(F)(F)F)c3)C2=O)CCCCC1 (stereo not shown) [Compound 20, 5-(4-Hydroxy-3-trifluoromethyl-benzyl)-3-(1-methyl-cyclohexylmethyl)-thiazolidine-2,4-dione] | – | retained the ability to suppress AR expression and cell viability, though with slightly lower potency | retained the ability to suppress AR expression and cell viability, though with slightly lower potency | – |
| CC1(COc2ccc(C=C3SC(=O)NC3=O)cc2)CCCCC1 [Δ2CG, reference compound] | – | modestly higher potency than ciglitazone | – | concentration required for complete suppression of AR protein expression ([1]; 10% FBS, Western blot (FIG. 2A)): approximately 30 μM; PPARγ activation (in words) (PPARγ): lacked appreciable activity |
